Literature values in PubChem BioAssay AID1259410 (Chemical Carcinogenesis Research Information System (CCRIS), 2018).

Test system: rodent tumor promotion studies, tumor incidence
Assay: CCRIS tumor promotion studies

Structure (SMILES): CCO
- outcome (Carcinogen: N-METHYL-N'-NITRO-N-NITROSOGUANIDINE, 70-25-7, Doses [Carcinogen]: 50 UG/ML IN DRINKING WATER FOR 20 WK, Doses [Promoter]: 0, 2.5 ML/KG BW OF 20% AGENT IN 0.9% SALINE SOLUTION 1/2D BEGINNING 1 WK POST LAST CARCINOGEN DOSE AND CONTINUING FOR DU, Route [Carcinogen]: ORAL, Route [Promoter]: INTRAPERITONEAL, Species: RAT, Strain/Sex: WISTAR/MALE): stomach: adenocarcinoma
- outcome (Carcinogen: N-METHYL-N-NITROSOUREA, 684-93-5, Doses [Carcinogen]: 30 MG/KG BW ONCE AT 50 D OF AGE, Doses [Promoter]: 0, 15% OF CALORIES IN DIET FOR 4 WK BEGINNING 3 WK PRIOR TO CARCINOGEN DOSE (STUDY DURATION: 25 WK), Route [Carcinogen]: INTRAPERITONEAL, Route [Promoter]: ORAL, Species: RAT, Strain/Sex: SPRAGUE-DAWLEY/FEMALE): mammary gland: adenocarcinoma
- outcome (Carcinogen: N-METHYL-N-NITROSOUREA, 684-93-5, Doses [Carcinogen]: 30 MG/KG BW ONCE AT 51 D OF AGE, Doses [Promoter]: 0, 15%, 20% OF CALORIES IN DIET BEGINNING 1 WK POST CARCINOGEN DOSE AND CONTINUING FOR DURATION OF STUDY (STUDY DURATION, Doses [Promoter]: 0, 15%, 20% OF CALORIES IN DIET BEGINNING 1 WK POST CARCINOGEN DOSE AND CONTINUING FOR DURATION OF STUDY (STUDY DURATION, Route [Carcinogen]: INTRAPERITONEAL, Route [Promoter]: ORAL, Species: RAT, Strain/Sex: SPRAGUE-DAWLEY/FEMALE): mammary gland: adenocarcinoma
- outcome (Carcinogen: N-NITROSODIMETHYLAMINE, 62-75-9, Doses [Carcinogen]: 1 PPM IN DRINKING WATER FOR 48 OR 72 WK, Doses [Promoter]: 0, 10% IN DRINKING WATER FOR 48 OR 72 WK (STUDY DURATION: 72 WK), Route [Carcinogen]: ORAL, Route [Promoter]: ORAL, Species: MOUSE, Strain/Sex: STRAIN-A/MALE): lung: tumor
- outcome (Carcinogen: N-NITROSODIMETHYLAMINE, 62-75-9, Doses [Carcinogen]: 5 MG/KG ONCE, Doses [Promoter]: 0, 5, 10, 20% SOLUTION ADMINISTERED WITH CARCINOGEN DOSE (STUDY DURATION: 16 WK), Doses [Promoter]: 0, 5, 10, 20% SOLUTION ADMINISTERED WITH CARCINOGEN DOSE (STUDY DURATION: 16 WK), Route [Carcinogen]: GAVAGE, Route [Promoter]: GAVAGE, Species: MOUSE, Strain/Sex: STRAIN-A/MALE): lung: tumor
- outcome (Carcinogen: N-NITROSODIMETHYLAMINE, 62-75-9, Doses [Carcinogen]: 5 PPM IN DRINKING WATER FOR 4 WK, Doses [Promoter]: 0, 1, 5, 10% IN DRINKING WATER FOR 4 WK (STUDY DURATION: 16 WK), Doses [Promoter]: 0, 1, 5, 10% IN DRINKING WATER FOR 4 WK (STUDY DURATION: 16 WK), Route [Carcinogen]: ORAL, Route [Promoter]: ORAL, Species: MOUSE, Strain/Sex: STRAIN-A/MALE): lung: tumor
- outcome (Carcinogen: N-NITROSOMETHYLBENZYLAMINE, 937-40-6, Doses [Carcinogen]: 0.2 MG/KG BW IN CORN OIL 3/WK FOR 3 WK, Doses [Promoter]: 0, 30% OF TOTAL CALORIES BEGINNING POST CARCINOGEN TREATMENT AND CONTINUING FOR DURATION OF STUDY (STUDY DURATION: 23 WK, Route [Carcinogen]: GAVAGE, Route [Promoter]: ORAL, Species: MOUSE, Strain/Sex: C57BL/FEMALE): esophagus: tumor
- outcome (Carcinogen: N-NITROSOMETHYLBENZYLAMINE, 937-40-6, Doses [Carcinogen]: 0.2 MG/KG IN CORN OIL 3/WK FOR 3 WK, Doses [Promoter]: SUBSTITUTED FOR MALTOSE DEXTRIN IN DIET TO PROVIDE 30% OF TOTAL DIETARY CALORIES BEGINNING POST CARCINOGEN TREATMENT AND, Route [Carcinogen]: GAVAGE, Route [Promoter]: ORAL, Species: MOUSE, Strain/Sex: C57BL/FEMALE): esophagus: tumor
- outcome (Carcinogen: N-NITROSOMETHYLBENZYLAMINE, 937-40-6, Doses [Carcinogen]: 2.5 MG/KG 3/WK FOR 3 WK, Doses [Promoter]: 1-2% IN LIQUID DIET ON DAY 1 AND INCREASING TO 7% BY DAY 8 OF AGENT TREATMENT BEGINNING 1 WK POST LAST CARCINOGEN DOSE F, Route [Carcinogen]: INTRAPERITONEAL, Route [Promoter]: ORAL, Species: RAT, Strain/Sex: SPRAGUE-DAWLEY/MALE): esophagus: papilloma
- outcome (Carcinogen: N-NITROSOPYRROLIDINE, 930-55-2, Doses [Carcinogen]: 6.8 PPM IN DRINKING WATER FOR 4 WK, Doses [Promoter]: 0, 10% IN STERILIZED DISTILLED DRINKING WATER ADMINISTERED WITH CARCINOGEN FOR 4 WK (STUDY DURATION: 36 WK), Route [Carcinogen]: ORAL, Route [Promoter]: ORAL, Species: MOUSE, Strain/Sex: STRAIN-A/MALE): lung: tumor
- outcome (Carcinogen: N-NITROSOPYRROLIDINE, 930-55-2, Doses [Carcinogen]: 40 PPM IN DRINKING WATER FOR 4 WK, Doses [Promoter]: 0, 10% IN STERILIZED DISTILLED DRINKING WATER ADMINISTERED WITH CARCINOGEN FOR 4 WK (STUDY DURATION: 36 WK), Route [Carcinogen]: ORAL, Route [Promoter]: ORAL, Species: MOUSE, Strain/Sex: STRAIN-A/MALE): lung: tumor
- outcome (Carcinogen: NITROSODIETHYLAMINE, 55-18-5, Doses [Carcinogen]: 6.8 PPM IN DRINKING WATER FOR 4 WK, Doses [Promoter]: 0, 10% IN STERILIZED DISTILLED DRINKING WATER ADMINISTERED WITH CARCINOGEN FOR 4 WK (STUDY DURATION: 36 WK), Route [Carcinogen]: ORAL, Route [Promoter]: ORAL, Species: MOUSE, Strain/Sex: STRAIN-A/MALE): lung: tumor; forestomach: carcinoma
- outcome (Doses [Carcinogen]: 1.5 MG/KG IN DMSO 2/WK FOR 10 WK (TOTAL DOSE: 30 MG/KG), Doses [Promoter]: 10% IN DRINKING WATER FOR 56 WK ADMINISTERED 1 WK POST CARCINOGEN DOSES (STUDY DURATION: 57 WK), Route [Carcinogen]: INTRAPERITONEAL, Route [Promoter]: ORAL, Species: RAT, Strain/Sex: ACI/N/MALE): liver: hepatocellular carcinoma, neoplastic nodule
